This data set can be described thus: Saturated MTZ solubility at 25° C. in solvents and solvent mixtures. It counts as physicochemical.
The mark [1] stands for this setting: MTZ in Phosphate buffer, 50 mM, pH 4.
[2] abbreviates: MTZ in Phosphate buffer, 50 mM, pH 6.

Experimental findings from patent publication US20140206735A1, “HIGH DOSAGE TOPICAL METRONIDAZOLE AQUEOUS-BASED GEL FORMULATIONS AND THEIR USE TO TREAT ROSACEA” (Medicis Pharmaceutical Corporation, priority 2012, published 2014) are described below.

Turning to `Cc1ncc([N+](=O)[O-])n1CCO` [MTZ, 2-(2-methyl-5-nitro-1H-imidazol-1-yl)ethanol], the “Solubility at 25° C. (n = 3, mean ± SEM)” value is, setting by setting: (MTZ in 1 wt % aq. polysorbate 60) 9.72 ± 0.08 mg/g; (MTZ in 2 wt % aq. Benzyl alcohol) 10.81 ± 0.040 mg/g; (MTZ in 10 wt % aq. Lutrol F127) 9.15 ± 0.09 mg/g; (MTZ in 50 wt % aq. glycerol) 7.62 ± 0.19 mg/g; (MTZ in Deionized water) 8.70 ± 0.09 mg/g; (MTZ in Ethanol) 16.36 ± 0.12 mg/g. Also, the “Solubility at 25° C. (n = 3, mean ± SEM)” value by setting is: (MTZ in PEG 400) 18.79 ± 1.23 mg/g; under setting [1], 8.26 ± 0.45 mg/g; under setting [2], 8.57 ± 0.05 mg/g; (MTZ in Propylene glycol) 18.62 ± 0.25 mg/g. Also, the “Solubility at 25° C. (n = 1)” value is, setting by setting: (MTZ in Ethanol) 19.96 mg/g; (MTZ in Ethylene glycol) 21.34 mg/g; (MTZ in Glycerol) 8.35 mg/g; (MTZ in PEG 400) 24.78 mg/g; under setting [1], 9.09 mg/g; (MTZ in Phosphate buffer, 50 mM, pH 5) 9.13 mg/g. The “Solubility at 25° C. (n = 1)” value runs as follows: under setting [2], 9.10 mg/g; (MTZ in Phosphate buffer, 50 mM, pH 7) 9.07 mg/g; (MTZ in Propylene glycol) 20.74 mg/g; (MTZ in tetraglycol) 29.65 mg/g. Moreover, where the note is “in certain alcohols (ethanol, benzyl alcohol), diols (ethylene glycol, propylene glycol), polyethers (PEG 400)”, the “saturated MTZ solubility at 25° C.” value is listed as “at least 20 mg/g”.
